Key:
RON = RON (Homo sapiens, UniProt Q04912); assay: Inhibitory activity against RON, TR-FRET kinase assay; type: biochemical; conditions: RON enzyme
Procedure: In order to measure the inhibitory activity of each of the compounds of Examples against RON, the IC50 of each of the compounds was measured using a Time-Resolved Fluorescence Energy Transfer Chemistry (TR-FRET).
(§1) Specifically, the compound was prepared to a concentration of 1 mM with 100% DMSO and was diluted 10 times in a stepwise manner through 3-fold dilution. 2 ul of the compound diluted in a stepwise manner was added to a 96-well-plate containing 48 ul of a 1× kinase reaction buffer (50 mM HEPES (pH 7.4), 0.01% Tween-20, 5 mM DTT, 0.5 mM Na3VO4, 2 mM EGTA, 10 mM MgCl2).
The RON protein was diluted to a concentration of 49.3 nM with an RON storage buffer (50 mM Tris-HCl (pH 7.5), 150 mM NaCl, 0.5 mM EDTA, 0.02% Triton X-100), and then diluted again to a concentration of 0.4 nM with a 1× kinase reaction buffer. As a substrate cocktail, a RON-specific substrate mixture (40 uM ULight-labeled Poly GT, 100 nM ATP) at a concentration 2 times the final reaction concentration.
Thereafter, a 384-well-plate was prepared, and 2.5 ul of each of the diluted compounds of Examples was added to a corresponding well of experimental group wells, and 2.5 ul of a 4% DMSO solution was dispensed into high control wells and low control wells.
(§2) Thereafter, 2.5 μL of 0.4 nM RON was dispensed into the high control wells and the experimental group wells, and 2.5 μL of a 1× kinase reaction buffer was added to the low control wells, and the RON and the reaction buffer were centrifuged at room temperature for 40 seconds at 1000 RPM, and then incubated at room temperature for 20 to 30 minutes. Then, 5 μL of a substrate cocktail (2×) was dispensed into all wells, centrifuged at room temperature for 40 seconds at 1000 RPM, and then incubated at room temperature for 60 minutes. Thereafter, 5 μL of 30 mM EDTA was added to all wells to terminate the reaction, and then incubated again at room temperature for 5 minutes. Thereafter, 5 μL of a 4× phosphotyrosine antibody (Perkin Elmer) containing europium was added to all wells, and then incubated at room temperature for 60 minutes. After the incubation, the 384-well-plate was read with a Vison plate reader. At this time, the excitation wavelength was 340 nm, and the emission wavelength was 620 nm and 665 nm. The IC50 value of the compound of each Example was derived using the GraphPd Prism7 program.

cMET = cMET (Homo sapiens, UniProt P08581); assay: Inhibitory activity against MET (cMET), TR-FRET kinase assay; type: biochemical; conditions: cMET enzyme
Procedure: In addition, in order to measure the enzyme activity inhibition for cMET, the evaluation was performed in the same manner as the enzyme activity inhibition measurement experiment for the RON.
as §1, with “7.4), 0.05% BSA, 0.005%” for “7.4), 0.01%”, “Tween-20, 1” for “Tween-20, 5”, “mM MnCl2, 20” for “mM Na3VO4, 2 mM EGTA, 10”
The cMET protein was diluted to a concentration of 263 nM with a cMET storage buffer (50 mM Tris-HCl (pH 7.5), 150 mM NaCl, 0.05% Brij35, 1 mM DTT, 10% Glycerol), and then diluted again to a concentration of 2 nM with a 1× kinase reaction buffer. As a substrate cocktail, a MET-specific substrate mixture (5 uM TK peptide, […]) at a concentration 2 times the final reaction concentration.
Thereafter, a 384-well-plate was prepared, and 2.5 μl of each of the diluted compounds of Examples was added to a corresponding well of experimental group wells, and 2.5 μl of a 4% DMSO solution was dispensed into high control wells and low control wells.
as §2, with “of 2” for “of 0.4”, “nM cMET” for “nM RON”, “of 90” for “of 30”

Sequence of cMET (P08581 25-1390): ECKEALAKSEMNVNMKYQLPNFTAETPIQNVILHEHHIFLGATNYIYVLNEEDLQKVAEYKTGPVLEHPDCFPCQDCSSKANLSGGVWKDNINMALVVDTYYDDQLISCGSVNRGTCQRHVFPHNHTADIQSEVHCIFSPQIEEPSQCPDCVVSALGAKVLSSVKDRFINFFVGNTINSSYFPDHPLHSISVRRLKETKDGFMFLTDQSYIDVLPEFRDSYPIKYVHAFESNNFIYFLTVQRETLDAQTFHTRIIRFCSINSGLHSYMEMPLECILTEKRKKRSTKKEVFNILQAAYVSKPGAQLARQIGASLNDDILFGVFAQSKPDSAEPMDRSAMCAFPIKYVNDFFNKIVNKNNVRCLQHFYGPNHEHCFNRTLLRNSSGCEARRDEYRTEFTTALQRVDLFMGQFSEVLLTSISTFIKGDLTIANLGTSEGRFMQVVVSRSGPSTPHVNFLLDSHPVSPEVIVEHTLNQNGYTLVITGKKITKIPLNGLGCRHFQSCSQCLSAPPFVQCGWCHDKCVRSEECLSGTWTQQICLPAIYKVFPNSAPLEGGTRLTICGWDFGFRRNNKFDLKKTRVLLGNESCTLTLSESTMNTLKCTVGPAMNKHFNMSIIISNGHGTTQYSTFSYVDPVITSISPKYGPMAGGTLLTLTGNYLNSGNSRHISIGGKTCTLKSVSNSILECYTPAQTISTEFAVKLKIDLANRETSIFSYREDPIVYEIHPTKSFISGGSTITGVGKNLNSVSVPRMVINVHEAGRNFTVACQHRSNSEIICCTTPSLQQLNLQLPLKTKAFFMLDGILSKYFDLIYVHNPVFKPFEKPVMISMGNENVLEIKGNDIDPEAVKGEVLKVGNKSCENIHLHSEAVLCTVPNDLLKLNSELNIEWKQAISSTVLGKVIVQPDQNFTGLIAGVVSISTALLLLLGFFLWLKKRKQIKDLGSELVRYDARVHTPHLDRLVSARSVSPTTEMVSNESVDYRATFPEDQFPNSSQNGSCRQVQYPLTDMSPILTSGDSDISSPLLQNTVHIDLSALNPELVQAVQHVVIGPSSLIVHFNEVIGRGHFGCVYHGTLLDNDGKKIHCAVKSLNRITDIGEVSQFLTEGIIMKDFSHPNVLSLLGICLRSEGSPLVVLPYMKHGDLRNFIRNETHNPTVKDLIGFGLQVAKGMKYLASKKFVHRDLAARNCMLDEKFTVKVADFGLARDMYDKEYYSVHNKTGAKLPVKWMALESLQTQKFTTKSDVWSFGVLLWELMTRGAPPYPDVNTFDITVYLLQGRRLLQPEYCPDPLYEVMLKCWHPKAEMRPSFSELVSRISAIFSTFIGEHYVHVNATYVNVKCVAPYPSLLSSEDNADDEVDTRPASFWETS
Sequence of RON (Q04912 25-1400, species assumed): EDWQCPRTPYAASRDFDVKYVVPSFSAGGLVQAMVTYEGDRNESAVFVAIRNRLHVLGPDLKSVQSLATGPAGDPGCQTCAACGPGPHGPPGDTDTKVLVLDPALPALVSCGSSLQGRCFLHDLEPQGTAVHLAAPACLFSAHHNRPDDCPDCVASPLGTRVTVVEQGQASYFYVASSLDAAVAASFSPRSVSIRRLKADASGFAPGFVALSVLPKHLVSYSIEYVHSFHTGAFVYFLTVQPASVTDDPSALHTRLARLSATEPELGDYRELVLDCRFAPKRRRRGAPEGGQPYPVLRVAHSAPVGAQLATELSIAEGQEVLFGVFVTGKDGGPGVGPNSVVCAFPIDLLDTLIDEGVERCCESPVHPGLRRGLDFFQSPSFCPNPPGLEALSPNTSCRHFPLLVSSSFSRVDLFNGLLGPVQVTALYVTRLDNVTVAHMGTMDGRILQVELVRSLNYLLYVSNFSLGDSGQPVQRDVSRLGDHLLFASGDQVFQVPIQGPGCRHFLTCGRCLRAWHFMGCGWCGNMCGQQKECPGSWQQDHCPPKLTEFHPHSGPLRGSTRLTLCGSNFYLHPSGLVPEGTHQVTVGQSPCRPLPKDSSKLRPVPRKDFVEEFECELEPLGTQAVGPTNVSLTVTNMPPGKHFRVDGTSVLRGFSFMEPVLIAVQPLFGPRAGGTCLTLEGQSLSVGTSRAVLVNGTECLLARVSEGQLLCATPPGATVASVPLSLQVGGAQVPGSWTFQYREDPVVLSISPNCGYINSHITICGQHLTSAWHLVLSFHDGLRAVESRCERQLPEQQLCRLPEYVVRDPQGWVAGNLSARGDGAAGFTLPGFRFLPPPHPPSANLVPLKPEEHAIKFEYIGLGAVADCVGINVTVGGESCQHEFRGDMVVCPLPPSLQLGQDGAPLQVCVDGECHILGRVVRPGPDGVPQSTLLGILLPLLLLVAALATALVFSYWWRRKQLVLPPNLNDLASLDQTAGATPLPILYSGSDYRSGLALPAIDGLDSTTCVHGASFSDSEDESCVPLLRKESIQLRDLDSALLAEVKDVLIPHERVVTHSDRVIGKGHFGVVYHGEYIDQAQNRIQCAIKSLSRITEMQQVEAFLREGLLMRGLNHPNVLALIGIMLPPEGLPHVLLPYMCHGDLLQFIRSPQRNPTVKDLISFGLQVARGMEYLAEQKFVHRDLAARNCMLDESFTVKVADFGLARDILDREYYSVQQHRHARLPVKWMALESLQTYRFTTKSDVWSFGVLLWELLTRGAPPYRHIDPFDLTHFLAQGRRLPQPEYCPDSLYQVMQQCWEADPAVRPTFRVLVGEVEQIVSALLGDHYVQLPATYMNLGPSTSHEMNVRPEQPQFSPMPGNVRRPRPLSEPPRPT

SMILES	IC50 (RON) [nM]	IC50 (cMET) [nM]
CC(C)n1c(=O)[nH]c2nccc(Oc3ccc(NC(=O)c4cnn(-c5c(F)cccc5F)c4C(F)(F)F)cc3F)c21 [Example 36, 1-(2,6-difluorophenyl)-N-(3-fluoro-4-((1-isopropyl-2-oxo-2,3-dihydro-1H-imidazo[4,5-b]pyridine-7-yl)oxy)phenyl)-5-(trifluoromethyl)-1H-pyrazole-4-carboxamide]	< 50	500 to 5000
O=C(Nc1ccc(Oc2ccnc3[nH]c(=O)n(C4CCOCC4)c23)c(F)c1)c1cnn(-c2ccccc2)c1C(F)(F)F [Example 37, N-(3-fluoro-4-((2-oxo-1-(tetrahydro-2H-pyran-4-yl)-2,3-dihydro-1H-imidazo[4,5-b]pyridine-7-yl)oxy)phenyl)-1-phenyl-5-(trifluoromethyl)-1H-pyrazole-4-carboxamide]	50 to 500	500 to 5000
O=C(Nc1ccc(Oc2ccnc3[nH]c(=O)n(C4CCOC4)c23)c(F)c1)c1cnn(-c2ccccc2)c1C(F)(F)F (centres unmarked) [Example 38, N-(3-fluoro-4-((2-oxo-1-(tetrahydrofuran-3-yl)-2,3-dihydro-1H-imidazo[4,5-b]pyridine-7-yl)oxy)phenyl)-1-phenyl-5-(trifluoromethyl)-1H-pyrazole-4-carboxamide]	< 50	500 to 5000
CN1CCC(n2c(=O)[nH]c3nccc(Oc4ccc(NC(=O)c5cnn(-c6ccccc6)c5C(F)(F)F)cc4F)c32)CC1 [Example 39, N-(3-fluoro-4-((1-(1-methylpiperidine-4-yl)-2-oxo-2,3-dihydro-1H-imidazo[4,5-b]pyridine-7-yl)oxy)phenyl)-1-phenyl-5-(trifluoromethyl)-1H-pyrazole-4-carboxamide]	< 50	> 5000
CC(C)n1c(=O)[nH]c2nccc(Oc3ccc(NC(=O)c4ccn(-c5ccccc5)n4)cc3F)c21 [Example 40, N-(3-fluoro-4-((1-isopropyl-2-oxo-2,3-dihydro-1H-imidazo[4,5-b]pyridine-7-yl)oxy)phenyl)-1-phenyl-1H-pyrazole-3-carboxamide]	500 to 5000	500 to 5000
CC(C)n1c(=O)[nH]c2nccc(Oc3ccc(NC(=O)c4cn(-c5ccccc5)nn4)cc3F)c21 [Example 41, N-(3-fluoro-4-((1-isopropyl-2-oxo-2,3-dihydro-1H-imidazo[4,5-b]pyridine-7-yl)oxy)phenyl)-1-phenyl-1H-1,2,3-triazole-4-carboxamide]	500 to 5000	> 5000
Cc1c(C(=O)Nc2ccc(Oc3ccnc4[nH]c(=O)n(C(C)C)c34)c(F)c2)nnn1-c1ccccc1 [Example 42, N-(3-fluoro-4-((1-isopropyl-2-oxo-2,3-dihydro-1H-imidazo[4,5-b]pyridine-7-yl)oxy)phenyl)-5-methyl-1-phenyl-1H-1,2,3-triazole-4-carboxamide]	50 to 500	> 5000

Source: patent publication US20240300944A1, “NOVEL UREA DERIVATIVE COMPOUND AS RON INHIBITOR” (LG CHEM, LTD., priority 2021, published 2024)
